ChEMBL document CHEMBL4699526, “Flavonoids with Inhibitory Effects on NLRP3 Inflammasome Activation from Millettia velutina” (J Nat Prod, 2020)

What was measured:
THP-1 = experiment: Cytotoxicity against LPS-primed human PMA-differentiated THP-1 cells 2.5 to 5 uM by CytoTox 96 Non-Radioactive assay; type: cell-based; details: dose 2.5-5 µM
[1] = In vivo inhibition of NLRP3 inflammasome activation in C57BL/6 mouse assessed as survival rate at 50 mg/kg, ip pretreated for 1 hr followed by LPS-treatment and measured every 12 hrs for 48 hrs relative to control; type: functional; details: C57BL/6, ip, time 49 hrs
[2] = In vivo inhibition of NLRP3 inflammasome activation in C57BL/6 mouse assessed as mortality rate at 50 mg/kg, ip pretreated for 1 hr followed by LPS-treatment and measured every 12 hrs for 48 hrs (reference value: 100%); type: functional; details: C57BL/6, ip, 61 h

Compound: COc1c(/C=C/C(=O)c2ccccc2)cc(OC)c2occc12
- Activity (THP-1): Non-Toxic
- survival at 50 mg/kg [1]: 100%
- mortality at 50 mg/kg [2]: 24%
